Experimental data: the C3SDB collision cross section collection
Structures can show the parent of a compound that is named as a salt.

conditions: [M+H]+; instrument: TW; calibrated with polyalanine and drug standards

Compound | collision cross section (N2) [Å²]
CC[C@H]1OC(=O)[C@H](C)[C@@H](O[C@H]2C[C@@](C)(OC)[C@@H](O)[C@H](C)O2)[C@H](C)[C@@H](O[C@@H]2O[C@H](C)C[C@H](N(C)C)[C@H]2O)[C@](C)(OC)C[C@@H](C)C(=O)[C@H](C)[C@@H](O)[C@]1(C)O [CLARITHROMYCIN] | 264.2
CC(=O)OC1C(=O)C2(C)C(O)CC3OCC3(OC(C)=O)C2C(OC(=O)c2ccccc2)C2(O)CC(OC(=O)C(O)C(NC(=O)c3ccccc3)c3ccccc3)C(C)=C1C2(C)C (centres undefined) [PACLITAXEL] | 278.9
N#C[C@H](O[C@@H]1O[C@H](CO[C@@H]2O[C@H](CO)[C@@H](O)[C@H](O)[C@H]2O)[C@@H](O)[C@H](O)[C@H]1O)c1ccccc1 [AMYGDALIN] | 200.6
COc1ccc(-c2cc(=O)c3c(O)cc(O)cc3o2)cc1O [DIOSMETIN] | 164.8
COc1cc2c(cc1O)C[C@H]1c3c(cc(O)c(OC)c3-2)CCN1C [BOLDINE] | 179.2
COC1=CC(=O)C=C(OC)C1=O [2,6-DIMETHOXYQUINONE] | 129.5
COc1ccc(-c2coc3c(OC)c(OC)cc(O)c3c2=O)cc1 [ISOTECTORIGENIN, 7-METHYL ETHER] | 171.9
CC[C@@]1(O)C[C@H](O[C@H]2C[C@H](N(C)C)[C@H](O)[C@H](C)O2)c2c(cc3c(c2O)C(=O)c2c(O)ccc(O)c2C3=O)[C@H]1C(=O)OC [PYRROMYCIN] | 233.9
C[C@]12C=CC(=O)C=C1CC[C@@H]1[C@@H]2CC[C@]2(C)C(=O)CC[C@@H]12 [ANDROSTA-1,4-DIEN-3,17-DIONE] | 168.4
CC1=C(C(=O)O)N2C(=O)[C@@H](NC(=O)[C@H](N)c3ccc(O)cc3)[C@H]2SC1 [CEFADROXIL] | 183.1
C[C@]12CC[C@@H]3c4ccc(O)cc4CC[C@H]3[C@@H]1C[C@H](O)[C@@H]2O [EPIESTRIOL] | 153.6
CCCCOc1ccc(CC(=O)NO)cc1 [BUFEXAMAC] | 161
CC(C)(C)NCC(O)c1ccc(O)c(CO)c1 (centres undefined) [ALBUTEROL] | 158.4
C[C@H]1O[C@H](O[C@H]2[C@H](O)[C@@H](O)[C@@H](O[C@H]3[C@H](O)[C@@H](O)C(O)O[C@@H]3CO)O[C@@H]2CO)[C@H](O)[C@@H](O)[C@@H]1N[C@H]1C=C(CO)[C@@H](O)[C@H](O)[C@H]1O (some centres undefined) [ACARBOSE] | 231
CCCNC(=O)NS(=O)(=O)c1ccc(Cl)cc1 [CHLORPROPAMIDE] | 158.5
CC(=O)Oc1cc(OC(C)=O)c2c(c1)O[C@H](c1ccc(OC(C)=O)c(OC(C)=O)c1)[C@H](OC(C)=O)C2 [EPICATECHIN PENTAACETATE] | 207.3
O=c1cccc2ccc(O)c(O)c2c1O [3,4,6-trihydroxy-5H-benzo[a]cyclohepten-5-one] | 134.7
CN1C[C@H](CNC(=O)OCc2ccccc2)C[C@@H]2c3cccc4c3c(cn4C)C[C@H]21 [METERGOLINE] | 197.6
Nc1c2ccccc2nc2ccccc12 [AMINACRINE] | 136.8
COc1cnc(NS(=O)(=O)c2ccc(N)cc2)nc1 [SULFAMETER] | 159
COC(=O)Nc1nc2ccc(S(=O)c3ccccc3)cc2[nH]1 (centres undefined) [OXFENDAZOLE] | 174.1
O=C(O)c1cc(=O)c2cccc(O)c2[nH]1 [XANTHURENIC ACID] | 137.7
CCN(CC)CCOCCOC(=O)C(CC)(CC)c1ccccc1 [OXELAIDIN CITRATE] | 178.3

Other lines, results leading:

collision cross section (N2) [Å²] | Compound
159.4 | CC(=O)Oc1ccccc1C(=O)Oc1ccccc1C(=O)O [DIPLOSALSALATE]
171 | CCCCC(=O)O[C@H]1CC[C@H]2[C@@H]3CCc4cc(O)ccc4[C@H]3CC[C@]12C [ESTRADIOL VALERATE]
129.1 | CC(=O)Oc1c(C)cccc1C(=O)O [CRESOPIRINE]
124.5 | O=C(O)c1ccc2c(c1)OCO2 [PIPERONYLIC ACID]
186.4 | COc1ccc(-c2cc(=O)c3c(OC)c(OC)c(OC)cc3o2)cc1OC [SINENSETIN]
349.1 | C[C@@H]1O[C@@H](O[C@H]2[C@H](O[C@H]3CC[C@@]4(C)[C@@H](CC[C@]5(C)[C@@H]4CC=C4[C@@H]6CC(C)(C)CC[C@]6(C(=O)O[C@@H]6O[C@H](CO[C@@H]7O[C@H](CO)[C@@H](O[C@@H]8O[C@@H](C)[C@H](O)[C@@H](O)[C@H]8O)[C@H](O)[C@H]7O)[C@@H](O)[C@H](O)[C@H]6O)CC[C@]45C)[C@]3(C)CO)OC[C@H](O)[C@@H]2O)[C@H](O)[C@H](O)[C@H]1O [HEDERACOSIDE C]
216.2 | CCCCCCCCCCOc1cc2c(=O)c(C(=O)OCC)c[nH]c2cc1OCC [DECOQUINATE]
169.7 | O=C(O)CCc1nc(-c2ccccc2)c(-c2ccccc2)o1 [OXAPROZIN]
159.4 | Cc1cc2c(cc1S(N)(=O)=O)S(=O)(=O)CCC2 [METICRANE]
185 | O=C(NC(Cc1cc(=O)[nH]c2ccccc12)C(=O)O)c1ccc(Cl)cc1 (centres undefined) [REBAMIPIDE]
183.7 | C[C@]12C=CC(=O)C=C1CC[C@@H]1[C@@H]2[C@@H](O)C[C@@]2(C)[C@H]1CC[C@]2(O)C(=O)CO [PREDNISOLONE]
191.4 | Nc1nc(/C(=C/CC(=O)O)C(=O)N[C@@H]2C(=O)N3C(C(=O)O)=CCS[C@H]23)cs1 [CEFTIBUTEN]
141.1 | CN1C(=O)CC[C@H]1c1cccnc1 [COTININE]
129.7 | CC(=O)Nc1ccc(O)cc1 [ACETAMINOPHEN]
194.2 | COc1cc2c(cc1OC)[C@@H]1C(=O)c3ccc4c(c3O[C@@H]1CO2)C=CC(C)(C)O4 [DEGUELIN(-)]
169.2 | O=C(/C=C/c1ccc(O)c(O)c1)O[C@H](Cc1ccc(O)c(O)c1)C(=O)O [ROSMARINIC ACID]
137.7 | Oc1c(Br)cc(Br)c2cccnc12 [BROXYQUINOLINE]

collision cross section (N2) [Å²] | Compound
182.4 | O=C(O)CCC(=O)Nc1ccc(S(=O)(=O)Nc2nccs2)cc1 [SUCCINYLSULFATHIAZOLE]
203.9 | COC(=O)C[C@H]1C(C)(C)C(=O)[C@@H]2CC3=C4CC(=O)O[C@@H](c5ccoc5)[C@]4(C)CC[C@@H]3[C@@]1(C)C2=O [MEXICANOLIDE]
173.6 | Cc1cccc(N(C)C(=S)Oc2ccc3ccccc3c2)c1 [TOLNAFTATE]
145.3 | CCn1cc(C(=O)O)c(=O)c2ccc(C)nc21 [NALIDIXIC ACID]
152.6 | Cn1c(=O)c2c(ncn2CC(O)CO)n(C)c1=O (centres undefined) [DYPHYLLINE]
181.6 | COc1cc(CNC(=O)CCCC/C=C/C(C)C)ccc1O [CAPSAICIN]
190.5 | CC(C)OC(=O)C(C)(C)Oc1ccc(C(=O)c2ccc(Cl)cc2)cc1 [FENOFIBRATE]
160.7 | COc1ccc2c(=O)c(OC)c(-c3ccccc3)oc2c1 [3,7-DIMETHOXYFLAVONE]
137.7 | c1ccc2[nH]c(-c3cscn3)nc2c1 [THIABENDAZOLE]
176.9 | COc1cc(C(=O)NCCCCCC(=O)O)cc(OC)c1OC [CAPOBENIC ACID]
166.2 | COc1ncnc(NS(=O)(=O)c2ccc(N)cc2)c1OC [SULFADOXINE]
193.9 | COc1cc2nc(N(C)CCCNC(=O)C3CCCO3)nc(N)c2cc1OC (centres undefined) [ALFLUZOSIN]
136.9 | Cn1c([N+](=O)[O-])cnc1COC(N)=O [RONIDAZOLE]
181.1 | CCCN(CCC)C(=O)C(CCC(=O)O)NC(=O)c1ccccc1 (centres undefined) [PROGLUMIDE]
148.9 | O=c1cc(-c2ccccc2)oc2cc(O)ccc12 [7-HYDROXYFLAVONE]
245.7 | CC(C)=CCCC1(C)C=Cc2c(O)c3c(c(CC=C(C)C)c2O1)OC12C(=CCCC1C(C)(C)O[C@@]2(C/C=C(\C)C(=O)O)C(=O)O)C3=O (some centres undefined) [GARCINOLIC ACID]

same assay, conditions: [M+Na]+; instrument: TW; calibrated with polyalanine and drug standards

Compound | collision cross section (N2) [Å²]
CC(=O)N[C@@H](CCC(=O)O)C(=O)O [ACETYLGLUTAMIC ACID] | 141.7
O=C(CCc1ccc(O)cc1)c1c(O)cc(O)cc1O[C@@H]1O[C@H](CO)[C@@H](O)[C@H](O)[C@H]1O [PHLORIDZIN] | 194.4
COc1cc([C@@H]2c3cc4c(cc3[C@@H](O[C@@H]3O[C@@H]5CO[C@@H](c6cccs6)O[C@H]5[C@H](O)[C@H]3O)[C@H]3COC(=O)[C@H]23)OCO4)cc(OC)c1O [TENIPOSIDE] | 266.1
CC(C)(C#N)O[C@@H]1O[C@H](CO)[C@@H](O)[C@H](O)[C@H]1O [LINAMARIN] | 157.3
C/C=C(\C)C(=O)O[C@H]1C[C@@H](OC(C)=O)[C@@]2(C(=O)OC)CO[C@H]3[C@@H](O)[C@@](C)([C@]45O[C@@]4(C)[C@H]4C[C@@H]5O[C@@H]5OC=C[C@@]54O)[C@H]4[C@]1(CO[C@]4(O)C(=O)OC)[C@@H]32 [AZADIRACHTIN] | 241.4

The next lines start with the values.

collision cross section (N2) [Å²] | Compound
206.6 | CC(=O)Oc1cc(OC(C)=O)c2c(c1)O[C@H](c1ccc(OC(C)=O)c(OC(C)=O)c1)[C@@H](OC(C)=O)C2 [CATECHIN PENTAACETATE]
163.2 | OCc1ccccc1O[C@@H]1O[C@H](CO)[C@@H](O)[C@H](O)[C@H]1O [SALICIN]

same assay, conditions: [M]+; instrument: TW; calibrated with polyalanine and drug standards

collision cross section (N2) [Å²] | Compound
214.8 | CCCCCCCCCCCCCCCC[N+](C)(C)Cc1ccccc1 [BENZALKONIUM CHLORIDE C16]
